Patent US12091425B2 (AMGEN INC., priority 2016, dated 2024)

Biological target: T1, Mcl-1/Bim interaction, recombinant human Mcl-1 (171-327) (Homo sapiens, UniProt Q07820)
T1 construct: made in house
Assay: Cell free Mcl-1: Bim Affinity Assay (Mcl-1 HTRF)
Type: binding
Conditions: cell free Mcl-1:Bim TR-FRET, recombinant human Mcl-1 (171-327)
Method in brief: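 Displacement of biotinylated Bim 51-76 peptide is followed by TR-FRET. Incubation runs overnight. Duplicate points are fitted with a four-parameter sigmoid to yield IC50.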

T1 sequence (Q07820 171-327): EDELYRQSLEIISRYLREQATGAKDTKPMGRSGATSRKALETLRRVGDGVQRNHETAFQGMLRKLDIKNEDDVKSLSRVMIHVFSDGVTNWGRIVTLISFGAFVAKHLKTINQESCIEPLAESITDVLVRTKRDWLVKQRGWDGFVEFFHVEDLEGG

Row | Structure (SMILES) | IC50 [nM]
1 | O=C1NS(=O)(=O)CCCC[C@H](O)C[C@@H]2CC[C@H]2CN2C[C@@]3(CCCc4cc(Cl)ccc43)COc3ccc1cc32 (single isomer, unassigned) [Example 867, (1S,3′R,6′S,8′S)-6-chloro-8′-hydroxy-3,4-dihydro-2H,15′H-spiro[naphthalene-1,22′-[20]oxa[13]thia[1,14]diazatetracyclo[14.7.2.0^3,6.0^19,24]pentacosa[16,18,24]trien]-15′-one 13′,13′-dioxide or (1S,3′R,6′S,8′R)-6-chloro-8′-hydroxy-3,4-dihydro-2H,15′H-spiro[naphthalene-1,22′-[20]oxa[13]thia[1,14]diazatetracyclo[14.7.2.0^3,6.0^19,24]pentacosa[16,18,24]trien]-15′-one 13′,13′-dioxide] | 6.81
2 | C[C@@H]1C[C@@H]2C[C@@H](O1)[C@@H]1CC[C@H]1CN1C[C@@]3(CCCc4cc(Cl)ccc43)COc3ccc(cc31)C(=O)NS(=O)(=O)CCO2 (single isomer, unassigned) [Example 876] | 18.3
3 | C=C1[C@@H](O)[C@H](O)CC[C@@H](CC)S(=O)(=O)NC(=O)c2ccc3c(c2)N(C[C@@H]2CC[C@@H]12)C[C@@]1(CCCc2cc(Cl)ccc21)CO3 (single isomer, unassigned) [Example 877] | 26.2
4 | O=C1NS(=O)(=O)CCCCC(O)CC2CCC2CN2CC3(CCCc4cc(Cl)ccc43)COc3ccc1cc32 (single isomer, unassigned) [Example 881, (1S,3′R,6′S,8′S)-6-chloro-8′-hydroxy-3,4-dihydro-2H,15′H-spiro[naphthalene-1,22′-[20]oxa[13]thia[1,14]diazatetracyclo[14.7.2.0^3,6.0^19,24]pentacosa[16,18,24]trien]-15′-one 13′,13′-dioxide or (1S,3′R,6′S,8′R)-6-chloro-8′-hydroxy-3,4-dihydro-2H,15′H-spiro[naphthalene-1,22′-[20]oxa[13]thia[1,14]diazatetracyclo[14.7.2.0^3,6.0^19,24]pentacosa[16,18,24]trien]-15′-one 13′,13′-dioxide] | 22.2
5 | O=C1NS(=O)(=O)CC/C=C\[C@@H](O)C[C@@H]2CC[C@H]2CN2C[C@@]3(CCCc4cc(Cl)ccc43)COc3ccc1cc32 (single isomer, unassigned) [Example 883, (1S,3′R,6′S,8′S,9′Z)-6-chloro-8′-hydroxy-3,4-dihydro-2H,15′H-spiro[naphthalene-1,22′[20]oxa[13]thia[1,14]diazatetracyclo[14.7.2.0^3,6.0^19,24]pentacosa[9,16,18,24]tetraen]-15′-one 13′,13′-dioxide or (1S,3′R,6′S,8′R,9′Z)-6-chloro-8′-hydroxy-3,4-dihydro-2H,15′H-spiro[naphthalene-1,22′-[20]oxa[13]thia[1,14]diazatetracyclo[14.7.2.0^3,6.0^19,24]pentacosa [9,16,18,24]tetraen]-15′-one 13′,13′-dioxide] | 48.5
6 | O=C1NS(=O)(=O)CC/C=C/[C@H](O)C[C@@H]2CC[C@H]2CN2C[C@@]3(CCCc4cc(Cl)ccc43)COc3ccc1cc32 (single isomer, unassigned) [Example 884, (1S,3′R,6′S,8′R,9′E)-6-chloro-8′-hydroxy-3,4-dihydro-2H,15′H-spiro[naphthalene-1,22′-[20]oxa[13]thia[1,14]diazatetracyclo[14.7.2.0^3,6.0^19,24]pentacosa [9,16,18,24]tetraen]-15′-one 13′,13′-dioxide or (1S,3′R,6′S,8′S,9′E)-6-chloro-8′-hydroxy-3,4-dihydro-2H,15′H-spiro[naphthalene-1,22′-[20]oxa[13]thia[1,14]diazatetracyclo[14.7.2.0^3,6.0^19,24]pentacosa [9,16,18,24]tetraen]-15′-one 13′,13′-dioxide] | 1.29
7 | O=C1NS(=O)(=O)CCCCC[C@@H](CO)[C@@H]2CC[C@H]2CN2C[C@@]3(CCCc4cc(Cl)ccc43)COc3ccc1cc32 (single isomer, unassigned) [Example 898, (1S,3′R,6′R,7′R)-6-chloro-7′-(hydroxymethyl)-3,4-dihydro-2H,15′H-spiro[naphthalene-1,22′-[20]oxa[13]thia[1,14]diazatetracyclo[14.7.2.0^3,6.0^19,24]pentacosa [16,18,24]trien]-15′-one 13′,13′-dioxide or (1S,3′R,6′R,7′S)-6-chloro-7′-(hydroxymethyl)-3,4-dihydro-2H,15′H-spiro[naphthalene-1,22′[20]oxa[13]thia[1,14]diazatetracyclo[14.7.2.0^3,6.0^19,24]pentacosa[16,18,24]trien]-15′-one 13′,13′-dioxide] | 4.03
8 | O=C1NS(=O)(=O)CCC[C@]2(O)CCO[C@H](C2)[C@@H]2CC[C@H]2CN2C[C@@]3(CCCc4cc(Cl)ccc43)COc3ccc1cc32 (single isomer, unassigned) [Example 900] | 4.33
9 | O=C1NS(=O)(=O)CCCCC[C@@H](CO)[C@@H]2CC[C@H]2CN2C[C@@]3(CCCc4cc(Cl)ccc43)COc3ccc1cc32 (single isomer, unassigned) [Example 906, (1S,3′R,6′R,7′R)-6-chloro-7′-(hydroxymethyl)-3,4-dihydro-2H,15′H-spiro[naphthalene-1,22′-[20]oxa[13]thia[1,14]diazatetracyclo[14.7.2.0^3,6.0^19,24]pentacosa [16,18,24]trien]-15′-one 13′,13′-dioxide or (1S,3′R,6′R,7′)-6-chloro-7′-(hydroxymethyl)-3,4-dihydro-2H,15′H-spiro[naphthalene-1,22′-[20]oxa[13]thia[1,14]diazatetracyclo[14.7.2.0^3,6.0^19,24]pentacosa [16,18,24]trien]-15′-one 13′,13′-dioxide] | 9.03
10 | C[C@@H]1CCCCCS(=O)(=O)NC(=O)c2ccc3c(c2)N(C[C@@H]2CC[C@H]21)C[C@@]1(CCCc2cc(Cl)ccc21)CO3 (single isomer, unassigned) [Example 907, (1S,3′R,6′S, 7′R)-6-chloro-7′-methyl-3,4-dihydro-2H,15′H-spiro[naphthalene-1,22′-[20]oxa[13]thia[1,14]diazatetracyclo[14.7.2.0^3,6.0^19,24]pentacosa [16,18,24]trien]-15′-one 13′,13′-dioxide or (1S,3′R,6′S, 7′S)-6-chloro-7′-methyl-3,4-dihydro-2H,15′H-spiro[naphthalene-1,22′-[20]oxa[13]thia[1,14]diazatetracyclo[14.7.2.0^3,6.0^19,24]pentacosa [16,18,24]trien]-15′-one 13′,13′-dioxide] | 18.9
11 | O=C1NS(=O)(=O)CCCC2(O)CCOC(C2)C2CCC2CN2CC3(CCCc4cc(Cl)ccc43)COc3ccc1cc32 (single isomer, unassigned) [Example 910] | 5.8

Next, values leading:

Row | IC50 [nM] | Structure (SMILES)
12 | 11.7 | O=C1NS(=O)(=O)CCCC[C@@H](O)[C@H](O)[C@@H]2CC[C@H]2CN2C[C@@]3(CCCc4cc(Cl)ccc43)COc3ccc1cc32 (single isomer, unassigned) [Example 853, (1S,3′R,6′R,7′R,8′R)-6-chloro-7′,8′-dihydroxy-3,4-dihydro-2H,15′H-spiro[naphthalene-1,22′-[20]oxa[13]thia[1,14]diazatetracyclo[14.7.2.0^3,6.0^19,24]pentacosa [16,18,24]trien]-15′-one 13′,13′-dioxide or (1S,3′R,6′R,7′S,8′S)-6-chloro-7′,8′-dihydroxy-3,4-dihydro-2H,15′H-spiro[naphthalene-1,22′-[20]oxa[13]thia[1,14]diazatetracyclo[14.7.2.0^3,6.0^19,24]pentacosa [16,18,24]trien]-15′-one 13′,13′-dioxide]
13 | 8.46 | O=C1NS(=O)(=O)CCCCC(O)C(O)C2CCC2CN2CC3(CCCc4cc(Cl)ccc43)COc3ccc1cc32 (single isomer, unassigned) [Example 857, (1S,3′R,6′R,7′R,8′R)-6-chloro-7′,8′-dihydroxy-3,4-dihydro-2H,15′H-spiro[naphthalene-1,22′-[20]oxa[13]thia[1,14]diazatetracyclo[14.7.2.0^3,6.0^19,24]pentacosa [16,18,24]trien]-15′-one 13′,13′-dioxide or (1S,3′R,6′R,7′S,8′S)-6-chloro-7′,8′-dihydroxy-3,4-dihydro-2H,15′H-spiro[naphthalene-1,22′-[20]oxa[13]thia[1,14]diazatetracyclo[14.7.2.0^3,6.0^19,24]pentacosa [16,18,24]trien]-15′-one 13′,13′-dioxide]
14 | 1.59 | CC1COCCC(O)C2CCC2CN2CC3(CCCc4cc(Cl)ccc43)COc3ccc(cc32)C(=O)NS1(=O)=O (single isomer, unassigned) [Example 861]
15 | 9.53 | O=C1NS(=O)(=O)CCOC[C@@H](O)[C@@H]2CC[C@H]2CN2C[C@@]3(CCCc4cc(Cl)ccc43)COc3ccc1cc32 (single isomer, unassigned) [Example 866, (3R,6R,7S,21S)-6′-chloro-7-hydroxy-3′,4′-dihydro-2′H,14H-spiro[9,19-dioxa-12-thia-1,13-diazatetracyclo[13.7.2.0^3,6.0^18,23]tetracosa-15,17,23-triene-21,1′-naphthalen]-14-one 12,12-dioxide or (3R,6R,7R,21S)-6′-chloro-7-hydroxy-3′,4′-dihydro-2′H,14H-spiro[9,19-dioxa-12-thia-1,13-diazatetracyclo[13.7.2.0^3,6.0^18,23]tetracosa-15,17,23-triene-21,1′-naphthalen]-14-one 12,12-dioxide]
16 | 8.26 | O=C1NS(=O)(=O)CCCOC[C@H](O)[C@@H]2CC[C@H]2CN2C[C@@]3(CCCc4cc(Cl)ccc43)COc3ccc1cc32 (single isomer, unassigned) [Example 870, (3R,6R,7R,22S)-6′-chloro-7-hydroxy-3′,4′-dihydro-2′H,15H-spiro[9,20-dioxa-13-thia-1,14-diazatetracyclo[14.7.2.0^3,6.0^19,24]pentacosa-16,18,24-triene-22,1′-naphthalen]-15-one 13,13-dioxide or (3R,6R,7S,22S)-6′-chloro-7-hydroxy-3′,4′-dihydro-2′H,15H-spiro[9,20-dioxa-13-thia-1,14-diazatetra-cyclo[14.7.2.0^3,6.0^19,24]pentacosa-16,18,24-triene-22,1′-naphthalen]-15-one 13,13-dioxide]
